Reference: patent publication US20170240592A1, “GADD45BETA/MKK7 INHIBITOR FOR THE TREATMENT OF A RESISTANT HAEMATOLOGICAL MALIGNANCY” (IMPERIAL INNOVATIONS LIMITED, priority 2014, published 2017)

Assays:
[1] = test system: multiple myeloma cell lines; test: [3H]thymidine incorporation assay, survival of multiple myeloma cell lines; type: cell-based, human; conditions: 6-day treatment; all lines tested apart from RPMI-8226 and KMM-1
Description: (§1) Values express the percentage of live cells present in the treated cultures relative to the live cells present in the respective untreated cultures and denote means±SD ([WM]; n=3). UT, untreated. […] Values express the percentage of inhibition of Gadd45β binding to MKK7 relative to the binding measured in the absence of peptide. […] Co-immunoprecipitations (IP) were performed using an anti-FLAG antibody (a-FLAG); western blots (WB) were developed using an anti-HA or an anti-MKK7 antibody, as shown.
[^3H]Thymidine incorporation and trypan blue exclusion assays were performed using standard methods (Mauro et al., 2011). […] Apoptosis analyses were performed using PI staining as described in Mauro et al., 2011. Additional details are provided in the Supplemental Experimental Procedures.

[2] = test system: drug-resistant multiple myeloma cell lines; test: [3H]thymidine incorporation assay, sensitive and drug-resistant multiple myeloma cell lines; type: cell-based, human; conditions: 6-day treatment; MM1.R, AMO-1a, MM1/R10R, U266/R10R
Excerpt: Matching pairs of sensitive (parental) and drug-resistant multiple myeloma cell lines were as follows: MM1.S (parental) and MM1.R (dexamethasone-resistant); AMO-1 (parental) and AMO-1a (bortezomib-resistant); MM1.S (parental) and MM1/R10R (lenalidomide-resistant); U266 (parental) and U266/R10R (lenalidomide-resistant). […] For clarity purposes, the same data for the parental MM1.S MM multiple myeloma cell line are shown as control for the dexamethasone-resistant (MM1.R) MM multiple myeloma cell line and the lenalidomide-resistant (MM1/R10R) MM multiple myeloma cell line.

[3] = mouse, in vivo, iv, 10 mg/kg
Description: (§2) In vitro pharmacokinetic assays were performed according to established, in-house protocols and included: plasma stability (human), thermodynamic solubility (PBS pH 7.4, at 37° C. for 14 days), microsomal stability (human), plasma protein binding (PPB; mouse and human), and distribution coefficient (Log D). In vivo pharmacokinetic analyses were also performed at Cyprotex according to established, in-house protocols. Briefly, the peptides were dissolved in PBS and administered by single intravenous injection to CD1 male mice at the dose of 10 mg/kg (25-30 g of total body weight; n=3 mice per time point per compound). Blood samples were collected in heparinized tubes at up to 7 time points after this injection (i.e. 0.08, 0.25, 0.5, 1, 2, 4 and 8 hr), and the plasma concentrations of the test peptide were determined at each time point by LC-MS/MS, using a five-point standard curve covering a peptide concentration range from 3 to 3,000 ng/mL. Standard curves were prepared using blank plasma matrices and treated in the same manner as the test samples. […] Values were calculated from the data of the peptide plasma concentration versus time curves using a non-compartmental model analysis, as described elsewhere (Groulx, 2006; Landaw and Di Stefano 3rd, 1982). The doses of z-DTP2 and DTP3 predicted to achieve the therapeutic plasma concentration of 1 μM at the steady state were calculated from the measured pharmacokinetic values using the following equation: k0=k1×Vd×Cp (where Vd is expressed in L/kg; Cp is the plasma concentration at the steady state expressed in mg/L; k0 is the zero order input expressed in mg/kg/hr; k1 is the first order elimination constant [0.693/t1/2]).

[4] = in vivo pharmacokinetic analyses after single intravenous injection; conditions: calculated from measured PK values, k0=k1×Vd×Cp
Description: as §2

[5] = test system: mouse LN cells and splenocytes; test: trypan blue exclusion assay, survival of mouse LN cells and splenocytes; type: cell-based; conditions: DTP3 100 μM, PS-1145 20 μM, 144 hr
Description: as §1
[…] Cell viability was measured by using trypan blue exclusion or [^3H]thymidine incorporation assays performed in the manner described above (Mauro et al., 2011; Griffiths and Sundaram, 2011; Arnold et al., 2008), as indicated.

Gadd45β/MKK7 complex = biological target: T1, Gadd45β/MKK7 complex (Homo sapiens, UniProt O14733); test: co-immunoprecipitation assay; type: binding; conditions: anti-FLAG immunoprecipitates, HEK-293T lysates
T1 construct: expressed in transfected cells; host or cells: human HEK-293T
T1 sequence (O14733 1-419): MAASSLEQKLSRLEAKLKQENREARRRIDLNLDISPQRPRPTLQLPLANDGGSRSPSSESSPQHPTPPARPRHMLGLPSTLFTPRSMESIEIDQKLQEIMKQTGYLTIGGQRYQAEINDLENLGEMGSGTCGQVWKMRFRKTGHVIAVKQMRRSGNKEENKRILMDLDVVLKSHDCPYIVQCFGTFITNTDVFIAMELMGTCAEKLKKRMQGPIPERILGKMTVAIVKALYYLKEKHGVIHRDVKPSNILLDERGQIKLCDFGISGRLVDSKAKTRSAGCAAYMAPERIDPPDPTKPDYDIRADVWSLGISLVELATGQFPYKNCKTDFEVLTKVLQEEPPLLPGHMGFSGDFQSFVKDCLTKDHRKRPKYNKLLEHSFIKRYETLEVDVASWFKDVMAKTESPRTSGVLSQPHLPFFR
Description: as §1
Co-immunoprecipitation assays were performed as described previously (Papa et al., 2004). Briefly, human HEK-293T cells were seeded at a density of 1.8-2.2×10^6 cells/dish in […] tissue-culture dishes and then transfected with pcDNA-FLAG-hMKK7 and pcDNA-HA-hGADD45β by using the calcium phosphate precipitation method (Papa et al., 2004). 48 hr after transfection, cells were washed with PBS and then lysed in lysis buffer supplemented with protease inhibitors (1 mM phenylmethylsulfonylfluoride, 10 μM chymostatin, 2 μg/mL aprotinin, 2 μg/mL leupeptin; Roche) for 30 min in ice. Cell lysates were cleared by centrifugation at 45,000×g for 40 min and then used for co-immunoprecipitations with anti-FLAG M2 Affinity Gel (Sigma-Aldrich), binding to FLAG-tagged MKK7. Western blots were developed using an anti-HA (binding to HA-hGADD45β) or an anti-MKK7 antibody. […]

FIG. 14 = test: FIG. 14
Excerpt: Table printed on a drawing sheet, FIG. 14
Values denote means±SD (n=3).
First reader's note: Each cell holds the value ± error and its unit together.

U266 cells = test: [3H]thymidine incorporation assay, DTP3 and bortezomib as single agents or in combination, U266; conditions: FA 0.5; DTP3 3 nM for 6 days, bortezomib last 48 hr; Chou-Talalay
Description: Treatments with DTP3 were for 6 days; bortezomib was added to the cell cultures 48 hr prior to the measurement of cell viability. For the combination treatment, DTP3 was used at the concentrations of 3 nM in U266 cells and of 10 nM in KMS-12 cells, whereas bortezomib was used at increasing concentrations, as shown.
Viability data from the experiment shown in FIG. 12 were converted into values representing the fraction of cells affected (FA) equaling 0.5 in the drug-treated cultures compared with untreated cultures, and the interaction of DTP3 with bortezomib was analysed according to the Chou-Talalay method (Chou, 2006). Also shown are the drug concentrations giving the FA value of 0.5 and the description of the CI. […]
[^3H]Thymidine incorporation assays were performed using standard protocols (Griffiths and Sundaram, 2011). […] At 24, 72 or 144 hr, cells were incubated for an additional 16 hr with 0.037 MBq/well of [^3H]thymidine (Amersham), and then harvested onto glass fibre filter mats using a 96-well plate automated Tomtec cell harvester (Receptor Technologies) and analysed by liquid scintillation spectroscopy with a LKB Wallac Trilux Microbeta 3 b-counter (PerkinElmer). Values were expressed as the percentage of the counts per minute (cpm) measured in the treated cultures relative to the cpm measured in the respective untreated cultures. […]

CC(=O)N[C@H](Cc1ccc(O)cc1)C(=O)N[C@H](CCCNC(=N)N)C(=O)N[C@H](Cc1ccccc1)C(N)=O [DTP3, Acetyl-Tyr-Arg-Phe-NH2]
cytotoxic activity in multiple myeloma cell lines [1]: potent and selective capacity to kill multiple myeloma cells via apoptosis
efficacy in multiple myeloma cell lines resistant to dexamethasone, bortezomib and lenalidomide [2]: retained full therapeutic efficacy
plasma clearance (CL) compared with z-DTP2 [3]: significantly lower
terminal half-life (t1/2) compared with z-DTP2 [3]: somewhat shorter
volume of distribution (Vd) compared with z-DTP2 [3]: much lower
predicted dose required to achieve the therapeutic plasma concentration of 1 μM at the steady state (k0) [4]: 0.81 mg/kg/h
toxicity to normal cells compared with PS-1145 [5]: far lesser toxicity to normal cells than the IKKβ inhibitor PS-1145
disruption of the Gadd45β/MKK7 complex (Gadd45β/MKK7 complex): disruption of the Gadd45β/MKK7 complex
CL (FIG. 14): 27.13 ± 4.09 mL/min/kg
Vd (FIG. 14): 2.80 ± 1.26 L/kg
combination index (CI) with bortezomib (U266 cells): 0.21
